Experiment [1] concerns MdNCR1b. The experiment is described as follows: product formation assay, varied NADPH […]. The format is biochemical, Malus domestica. As to conditions: 100 µM naringenin chalcone, Bis-Tris propane 0.1 M, pH 3.0, 30 °C, 30 min.
The subject of experiment [2] is MdNCR1b. The experiment is described as follows: product formation assay, varied naringenin chalcone […]. The format is biochemical, Malus domestica. As to conditions: 400 µM NADPH, Bis-Tris propane 0.1 M, pH 3.0, 30 °C, 30 min; read-out: Km (apparent).

Structures are written as SMILES.

Consider `NC(=O)C1=CN([C@@H]2O[C@H](COP(=O)(O)OP(=O)(O)OC[C@H]3O[C@@H](n4cnc5c(N)ncnc54)[C@H](OP(=O)(O)O)[C@@H]3O)[C@@H](O)[C@H]2O)C=CC1` [NADPH], for which, in the experiment on MdNCR1b [1], the Km was 23.1 ± 9.4 µM.
As to `O=C(/C=C/c1ccc(O)cc1)c1c(O)cc(O)cc1O` [compound 1, 2ʹ,4,4ʹ,6ʹ-tetrahydroxychalcone], in the experiment with MdNCR1b [2], the Km came out at 9.9 ± 2.6 µM.

Usually Km stands for the concentration of substrate that gives half-maximal velocity.

(Values after PMC11638483, “Naringenin chalcone carbon double-bond reductases mediate dihydrochalcone biosynthesis in apple leaves” (Plant Physiology, 2024).)
